pIC50: −log10 of the molar value. Read-outs that look alike come from different tables or passages of the source.
How the values were obtained:
[1] = test system: calf thymus DNA (CT-DNA); assay: Thermal denaturation studies with duplex-form calf thymus DNA; type: binding; conditions: [PND]/[DNA] molar ratio 1:5, CT-DNA 100 μM, ligand 20 μM, aqueous sodium phosphate buffer pH 7; for ΔTm after incubation at 37° C. for 0 hr: 0 hr at 37° C.; for ΔTm after incubation at 37° C. for 18 hrs: 18 hrs at 37° C.
Description: Compounds have been subjected to thermal denaturation studies with duplex-form calf thymus DNA (CT-DNA) using an modification of a reported procedure (Newman, M. S. Carcinog-compr. Surv. 1976, 1, 203; (b) Hecht, S. S.; Loy, M.; Hoffman, Carcinog-compr. Surv. 1976, 1, 325). Working solutions in aqueous buffer (10 mM NaH2PO4/Na2HPO4, 1 mM Na2EDTA, pH 7.00+0.01) containing CT-DNA (100 μm in phosphate) and the PND (pyrrolo naphtha diazepine) (20 μm) have been prepared by addition of concentrated PND (pyrrolo naphtha diazepine) solutions in DMSO to obtain a fixed [PND]/[DNA] molar ratio of 1:5. The DNA-PND (pyrrolo naphtha diazepine) solutions have been incubated at 37° C. for 0 and 18 h prior to analysis. Samples have been monitored at 260 nm using a Beckman DU-800 spectrophotometer fitted with high performance temperature controller, and heated at 1° C. min in the 40-110° C. range. DNA helix→coil transition temperatures (Tm) have been obtained from the maxima in the d(A260)/dT derivative plots. Drug-induced alterations in DNA melting behavior are given by: ΔTm=Tm(DNA+PND)−Tm(DNA alone), where the Tm value for the PND-free CT-DNA is 69.1±0.01.
The DNA binding activity for these novel substituted piperazine linked pyrrolo naphtho diazepine hybrids has been examined by thermal denaturation studies using calf thymus (CT) DNA. […] The data for some of the compounds are included in Table 1 for comparison.

[2] = test system: A549 lung cancer cell line; assay: In vitro anticancer activity, MTT assay; type: cell-based, human; conditions: for in-vitro cytotoxicity in lung cancer cell line (A549): result in words
Description: (§1) In vitro biological activity studies were carried out at the pharmacology division, IICT, Hyderabad. The compounds were evaluated for in vitro anticancer activity against eight tumour cell lines derived from […] cancer types (breast, lung, liver, skeletal, kidney, prostrate, small intestine) as shown in Table 2. For each compound, dose response curves for each cell line were measured at a minimum of five concentrations at 10 fold dilutions. A protocol of 48 h continuous drug exposure was used and a MTT assay was used to estimate cell viability or growth. The concentration causing 50% inhibition (IC50) compared with the control was calculated. Some of the compounds have been evaluated for their in vitro cytotoxicity in eight cell lines from seven human cancer types. The results are expressed as IC50 determined relative to that of untreated control cells (Table-2).

[3] = test system: HEPG2 liver cancer cell line; assay: In vitro anticancer activity, MTT assay; type: cell-based, human; conditions: for in-vitro cytotoxicity in liver cancer cell line (HEPG2): result in words
Description: as §1

[4] = test system: MCF7 breast cancer cell line; assay: In vitro anticancer activity, MTT assay; type: cell-based, human; conditions: for pIC50: breast cancer cell line, MTT, 48 h continuous drug exposure; for in-vitro cytotoxicity in breast cancer cell line (MCF-7): result in words
Description: as §1

[5] = test system: NCIH460 large cell lung cancer cell line; assay: In vitro anticancer activity, MTT assay; type: cell-based, human; conditions: for pIC50: large cell lung cancer cell line, MTT, 48 h continuous drug exposure; for in-vitro cytotoxicity in large cell lung cancer cell line (NCIH460): result in words
Description: as §1

[6] = test system: PC-3 prostrate cancer cell line; assay: In vitro anticancer activity, MTT assay; type: cell-based, human; conditions: for pIC50: prostrate cancer cell line, MTT, 48 h continuous drug exposure; for in-vitro cytotoxicity in prostrate cancer cell line (PC-3): result in words
Description: as §1

[7] = In vitro anticancer activity, MTT assay; type: cell-based; conditions: kidney cancer cell line, MTT, 48 h continuous drug exposure
Description: as §1

[8] = test system: COS-1 kidney cancer cell line; assay: In vitro anticancer activity, MTT assay; type: cell-based; conditions: for in-vitro cytotoxicity in kidney cancer cell line (COS-1): result in words
Description: as §1

[9] = test system: IEC-6 small intestine cell line; assay: In vitro anticancer activity, MTT assay; type: cell-based; conditions: for in-vitro cytotoxicity in small intestine cancer cell line (IEC-6): result in words
Description: as §1

[10] = test system: L-6 skeletal cancer cell line; assay: In vitro anticancer activity, MTT assay; type: cell-based; conditions: result in words
Description: as §1

[11] = test system: L-6; assay: In vitro anticancer activity, MTT assay; type: cell-based; conditions: skeletal cancer cell line; MTT, 48 h continuous drug exposure
Description: as §1

Row | SMILES | ΔTm after incubation at 37° C. for 0 hr [1] | ΔTm after incubation at 37° C. for 18 hrs [1] | in-vitro cytotoxicity in lung cancer cell line (A549) [2] | in-vitro cytotoxicity in liver cancer cell line (HEPG2) [3] | in-vitro cytotoxicity in breast cancer cell line (MCF-7) [4] | in-vitro cytotoxicity in large cell lung cancer cell line (NCIH460) [5] | in-vitro cytotoxicity in prostrate cancer cell line (PC-3) [6] | in-vitro cytotoxicity in kidney cancer cell line (COS-1) [8] | in-vitro cytotoxicity in small intestine cancer cell line (IEC-6) [9] | in-vitro cytotoxicity in skeletal cancer cell line (L-6) [10] | pIC50 [11] | also measured
1 | COc1cc2cc3c(cc2cc1OCCN1CCN(Cc2ccc4c(c2)OCO4)CC1)N=C[C@@H]1CCCN1C3=O [7a, 8-Methoxy-9-(2-[4-(1,3-benzodioxol-5-ylmethyl)piperazino]ethoxyl)(13aS)-1,2,3,13a-tetrahydro-5H-pyrrolo[2,1-c][1,4]naphthodiazepin-5-one] | 4.9 °C | 6.5 °C | exhibiting in-vitro cytotoxicity | exhibiting in-vitro cytotoxicity | exhibiting in-vitro cytotoxicity | exhibiting in-vitro cytotoxicity | exhibiting in-vitro cytotoxicity | exhibiting in-vitro cytotoxicity | exhibiting in-vitro cytotoxicity | exhibiting in-vitro cytotoxicity | 6.11 | pIC50 ([2]; lung cancer cell line, MTT, 48 h continuous drug exposure, read-out: IC50 A549): 5.66; pIC50 ([3]; liver cancer cell line, MTT, 48 h continuous drug exposure, read-out: IC50 HEPG2): 6.96; pIC50 [4]: 6.70; pIC50 [5]: 7.10; pIC50 [6]: 6.19; pIC50 ([7]; read-out: IC50 COS-1): 5.59; pIC50 ([9]; small intestine cell line, MTT, 48 h continuous drug exposure, read-out: IC50 IEC-6): 7.30
2 | CCN1CCN(CCOc2cc3cc4c(cc3cc2OC)N=C[C@@H]2CCCN2C4=O)CC1 [15a, 9-Methoxy-8-[2-(4-ethylpiperazino)ethoxy]-(13aS)-1,2,3,13a-tetrahydro-5H-pyrrolo[2,1-c][1,4]naphthodiazepin-5-one] | 6.1 °C | 7.2 °C | exhibiting in-vitro cytotoxicity | exhibiting in-vitro cytotoxicity | exhibiting in-vitro cytotoxicity | exhibiting in-vitro cytotoxicity | exhibiting in-vitro cytotoxicity | exhibiting in-vitro cytotoxicity | exhibiting in-vitro cytotoxicity | exhibiting in-vitro cytotoxicity | 5.73 | pIC50 ([2]; Homo sapiens, A549, lung cancer cell line, MTT, 48 h continuous drug exposure, read-out: IC50 A549): 6.27; pIC50 ([2]; Homo sapiens, A549, range over the listed compounds, exposure period of at least 48 hrs, read-out: IC50 against lung cancer cell lines): 4.92 to 7.70; pIC50 ([3]; Homo sapiens, HepG2, liver cancer cell line, MTT, 48 h continuous drug exposure, read-out: IC50 HEPG2): 6.70; pIC50 ([3]; Homo sapiens, HepG2, range over the listed compounds, exposure period of at least 48 hrs, read-out: IC50 against liver cancer cell lines): 5.14 to 7.70; pIC50 ([4]; Homo sapiens, MCF7): 7.40; pIC50 ([5]; Homo sapiens, NCI-H460): 5.90; pIC50 ([6]; Homo sapiens): 6.39; pIC50 ([7]; COS-1): 5.44; pIC50 ([8]; COS-1, range over the listed compounds, exposure period of at least 48 hrs, read-out: IC50 against kidney cancer cell lines): 5.36 to 6.10; pIC50 ([9]; IEC-6, range over the listed compounds, exposure period of at least 48 hrs, read-out: IC50 against small intestine cancer cell lines): 5.23 to 8.00; pIC50 ([9]; IEC-6, small intestine cell line, MTT, 48 h continuous drug exposure, read-out: IC50 IEC-6): 6.89

Reference: patent US8759339B2, “Pyrrolo[2,1-c][1,4]naphthodiazepine linked piperazine compounds and a process for the preparation thereof” (Council of Scientific & Industrial Research, priority 2011, dated 2014)
